According to US11058737B2, “Use of Euycoma longifolia extract in alleviating symptoms and/or conditions associated with hormonal imbalance in females” ([…] BERHAD, priority 2018, dated 2021):

Assays:
Format in all cases: in vivo, Sprague Dawley rats
ovariectomized rat model [1] = assay: Biochemical estimations: serum calcium, phosphate, bone alkaline phosphatase, osteocalcin; details: ovariectomized rats
Procedure: (§1) The test item, i.e. aqueous extract of Eurycoma longifolia, was studied for its capabilities or effect in relation to the alleviation or treatment of menopause symptoms and hormonal activity against ovariectomized rat model in vivo.
(§2) 48 female Sprague dawley rats were ovariectomized or sham operated. Both sham and ovariectomized rats (n=8) received the vehicle. The remaining 3 group ovariectomized rats were orally administrated with Eurycoma longifolia aqueous extract 100 mg/kg, 300 mg/kg and 500 mg/kg b.w. The treatment continued for 8 weeks. Group 6 ovariectomized rats received testosterone undecanoate (10 mg/kg b.w) through the route of intramuscular injection once in every 4 weeks for 8 weeks. At week 8 of the last dose, sexual behaviors were recorded. Blood was collected for biochemical analysis. Calcium, phosphate, bone alkaline phosphatase (ALP), osteocalcin and hormone profile estimation was done.
(§3) Test System • Animal species: Rats • Strain: Sprague Dawley • Justification for Selection of Species: Recommended and Justified by sponsor • Sex: Female • Age: 10-12 weeks (Mohamed et al, 2016) • Source of supply: In house breed • No. of groups: 6 • Group 1: Sham operated group (surgically opened but no ovariectomy) • Group 2: Ovariectomy group (Negative control) • Group 3: Ovariectomy+Low dose extract • Group 4: Ovariectomy+Middle dose extract • Group 5: Ovariectomy+High dose extract • Group 6: Ovariectomy+Testosterone undecanoate (Positive control) • No. of Animals/Group: 8 females/group • Age at Treatment: 12 weeks • Body Weight Range at Receipt: 120-250 gms • Animal Identification: Each animal will be marked by picric acid and numbering will be given individually to each animal. • Acclimatization: The rats were acclimatized for 1 week before treatment.
(§4) In Group 2, only ovariectomy was performed. Group 3, Group 4 and Group 5 received the Eurycoma longifolia aqueous extract daily at low dose (100 mg/kg), middle dose (300 mg/kg) and high dose (500 mg/kg) at respective concentrations orally for 8 weeks, whereas Group 6 received Testosterone undecanoate (10 mg/kg) intramuscular injection once in every 4 weeks for 8 weeks. • (i) Surgical Procedure • Anesthesia was induced by intraperitoneal injection of ketamine HCL (80 mg/kg) and the depth of anesthesia was checked by monitoring respiratory rate or simply testing the animal response to gentle pressure on the hind paws. After the onset of anesthesia, animal was placed under operating area. Clippers were used to clip the skin and shaved fur bilaterally to expose skin. The procedure was carried out by making two incisions to separately reach each ovary. Shaved skin was swab with 70% (v/v) ethanol. Anaesthetized animal was placed on the operating table with its back exposed and its tail towards the operator. A single dorsal incision (1 cm) was made penetrating the skin using small scissors. Incision was made in the lower back, directly below the bottom of the rib cage. Gently subcutaneous connective tissue was made free from the underlying muscle on each side using blunt forceps. Ovary was located under the thin muscle layer and a small incision (less than 1 cm) was made on each side to gain entry to the peritoneal cavity. The edge of the incision was holded securely with tooth forceps and the ovarian fat pad was retracted surrounding ovaries with blunt forceps to expose oviduct. […] 30 gms feed was added daily to each animal in the morning time and leftover feed was recorded on next day from the same animal cage. […]

[2] = Body weight of ovariectomized rats; details: 10 mg/kg intramuscular once every 4 weeks
Procedure: as §2, §3
as §4, with “oviduct. Ovary was removed by gently severing the oviduct, using sterile, small scissors. Uterus was replaced and remaining part of the oviduct back into the abdominal cavity. Muscle layer was sutured and procedure was repeated for the other ovary.” for “oviduct.”

ovariectomized rats = assay: Clinical signs of toxicity and mortality in ovariectomized rat model; details: 10 mg/kg intramuscular once every 4 weeks, 8 weeks
Procedure: as §2, with “done. […]” for “done.”
(§5) In Group 2, only ovariectomy was performed. […] 30 gms feed was added daily to each animal in the morning time and leftover feed was recorded on next day from the same animal cage. […]

ovariectomized rat model [3] = assay: Reproductive hormone levels in rat serum (FSH, LH, progesterone, estrogen, testosterone; CLIA); details: ovariectomized rats, 10 mg/kg intramuscular once every 4 weeks, 8 weeks
Procedure: as §1, §2, §3, §4

ovariectomized rat model [4] = assay: Uterus weight at necropsy; details: ovariectomized rats, 10 mg/kg intramuscular once every 4 weeks
Procedure: as §2, with “done. […]” for “done.”
as §5

[5] = serum, 10 mg/kg intramuscular once every 4 weeks, 8 weeks, 10 mg/kg

## CCCCCCCCCCC(=O)O[C@H]1CC[C@H]2[C@@H]3CCC4=CC(=O)CC[C@]4(C)[C@H]3CC[C@]12C [Testosterone undecanoate]
Ovariectomized rat model [1]; positive control 10 mg/kg intramuscular, no significant changes
  serum osteocalcin levels, change: Decreased serum osteocalcin levels
Ovariectomized rat model [1]; serum, 10 mg/kg intramuscular once every 4 weeks, 8 weeks
  Osteocalcin: 7.26 ± 0.20 ng/mL
Ovariectomized rat model [1]; [5]
  Bone Alkaline phosphatase: 3.06 ± 0.12 ng/mL
  Calcium: 8.48 ± 0.16 mg/dL
  Phosphate: 3.29 ± 0.13 mg/dL
[2]; Basal
  Body Weight: 185.0 ± 3.35
[2]; Week 1
  Body Weight: 196.0 ± 3.17
[2]; Week 2
  Body Weight: 207.4 ± 2.99
[2]; Week 3
  Body Weight: 217.8 ± 3.31
[2]; Week 4
  Body Weight: 229.4 ± 3.24
[2]; Week 5
  Body Weight: 238.6 ± 3.33
[2]; Week 6
  Body Weight: 244.8 ± 3.53
[2]; Week 7
  Body Weight: 252.9 ± 4.37
[2]; Week 8
  Body Weight: 259.3 ± 4.85
[2]; from basal to Week 1
  Percentage of Weight Gain: 5.95%
[2]; from basal to Week 2
  Percentage of Weight Gain: 12.11%
[2]; from basal to Week 3
  Percentage of Weight Gain: 17.73%
[2]; from basal to Week 4
  Percentage of Weight Gain: 24.00%
[2]; from basal to Week 5
  Percentage of Weight Gain: 28.97%
[2]; from basal to Week 6
  Percentage of Weight Gain: 32.32%
[2]; from basal to Week 7
  Percentage of Weight Gain: 36.70%
[2]; from basal to Week 8
  Percentage of Weight Gain: 40.16%
Ovariectomized rats
  No. of Mortality/No. of Animals Dosed: 0/8
Ovariectomized rat model [3]
  Estrogen: 12.35 ± 0.25 pg/mL
  FSH: 3.96±0.22 mlU/ml
  LH: 3.76±0.11 mlU/ml
  Progesterone: 3.31 ± 0.15 ng/mL
  Testosterone: 13.01 ± 0.41 ng/mL
Ovariectomized rat model [4]
  uterus weight, effect after ovariectomy: prevented the ovariectomy induced loss of uterus weight
Ovariectomized rat model [4]; 8 weeks, 10 mg/kg
  UTERUS WEIGHT: 389.74 ± 8.26 mg
